Experimental data reported in patent publication US11179348B2, “Combination comprising pterostilbene for the treatment of cancer” (FUNDACIÓN UNIVERSIDAD CATÓLICA DE VALENCIA SAN VICENTE …, priority 2015, dated 2021).
Marks after values point to notes of the source that are not given here.

Tests used:
human melanoma cells = assay: Effect of pterostilbene on melanoma cell growth and viability in vitro; type: cell-based
corticosterone = assay: Plasma corticosterone levels (ELISA) in tumor-bearing mice; type: in vivo
From the text: Measurement of ACTH, Corticosterone, and NORA Levels.
Plasma levels of ACTH (Calbiotech, Inc., Spring Valley, Calif.), corticosterone (Kamiyama Biomedical Co., Seattle, Wash.), and NORA (IBL, Hamburg, Germany) were quantified by ELISA according to the instructions of the suppliers.

HT-29 human colon cancer = conditions: 20 μM Pter, 24 h, in vitro; cited from earlier work
[1] = tested on: HepG2 hepatocellular carcinoma; assay: In vivo growth of HepG2 liver cancer xenografts; set-up: species or system human; conditions: HepG2, day 35
[2] = tested on: Caco-2 colorectal carcinoma; assay: In vivo growth of Caco-2 colorectal cancer xenografts; set-up: species or system human; conditions: Caco-2, day 28
MeWo melanoma = assay: In vivo growth of MeWo melanoma xenografts in nu/nu mice; set-up: species or system human
MeWo melanoma cells = assay: Nrf2- and redox state-related enzyme activities and metabolites in MeWo cells growing in vivo; set-up: species or system human; conditions: in vivo +Pter, day 35
Description: Transfection of the Red Fluorescence Protein.
First the pDsRed-2 vector (Clontech Laboratories Inc., Palo Alto, Calif.) was used, as previously described for A375 melanoma cells (Mena, S. et al. J Transl Med 10, 8 (2012)), to engineer A2058, MeWo and MelJuso melanoma clones stably expressing the RFP. Isolation of A2058-RFP, MeWo-RFP or MelJuso-RFP cells from the growing xenografts was performed by laser microdissection and high-performance cell sorting as previously described in detail (Mena, S. et al. J Transl Med 10, 8 (2012)).
To measure enzyme activity, isolated tumor cells were homogenized in 0.1 M phosphate buffer (pH 7.2) at 4° C. GCL and GSS activities were measured as described previously (Obrador, E. et al. Hepatology 35, 74-81 (2002)). GPX (selenium dependent) activity was measured as described by Flohé and Gunzler (Flohe, L. & Gunzler, W. A. Methods Enzymol 105, 114-121 (1984)) using H2O2 as a substrate. GSR activity was determined as described by Akerboom and Sies (Akerboom, T. P. et al, Bull Eur Physiopathol Respir 17 Suppl, 221-227 (1981)). GGT activity was measured as described previously (Obrador, E. et al. Hepatology 35, 74-81 (2002)). GST activity was measured using an assay kit from Sigma. TXNRD activity, defined by the concentration of sodium-lipoate (disulfide) reduced to dehydrolipoate (dithiol) per milligram protein, was measured as previously described (Javvadi, P. et al. Cancer Res 70, 1941-1950 (2010)). SOD activity was measured as described by Flohé and Otting (Flohe, L. & Otting, F. Methods Enzymol 105, 93-104 (1984).) using 2 mM cyanide in the assay medium to distinguish mangano-type enzyme (SOD2) from the cuprozinc type (SOD1). CAT activity was analyzed as described by Aebi (Aebi, H. Methods Enzymol 105, 121-126 (1984)). NOX activity was measured by chemiluminescence following the methodology of Wind et al. (Wind, S. et al. Comparative pharmacology of chemically distinct NADPH oxidase inhibitors. Br J Pharmacol 161, 885-898 (2010)). Protein concentration was determined with the Pierce BCA protein assay (Fisher Scientific, Waltham, Mass.).
Measurement of H2O2 and O2^⋅−.
Quantitative measurement of H2O2 and flow cytometry determination of O2^⋅− generation were performed as previously described (Benlloch, M. et al. J Biol Chem 281, 69-79 (2006)).
GSH, GSSG, NADP^+ and NADPH Determination.
GSH and GSSG were determined, following procedures previously described (Obrador, E. et al. PLoS One 9, e96466 (2014)), by LC/MS using the same equipment described above for pterostilbene determination. Cell processing was performed according to published methodology, where rapid N-ethylmaleimide derivatization was used to prevent GSH auto-oxidation (Asensi, M. et al. Anal Biochem 217, 323-328 (1994)). NADP^+ and NADPH were quantitated using an assay kit from Sigma (St. Louis, Mo.).

## COc1cc(/C=C/c2ccc(O)cc2)cc(OC)c1 [Pter, trans-3,5-dimethoxy-4′-hydroxystilbene]
Human melanoma cells; human melanoma cells, 60 min incubation
  pterostilbene levels in culture medium during incubation: remained unchanged
Human melanoma cells; pterostilbene 15 μM, 60 min each 24 h
  melanoma cell proliferation and viability in vitro: nor tumor cell proliferation neither viability were significantly affected
corticosterone; A549-bearing mice, day 35, 12 h circadian time
  CRC: 61 ± 17 ng/mL plasma
corticosterone; A2058-bearing mice, day 35, 12 h circadian time
  CRC: 123 ± 29 ng/mL plasma
corticosterone; AsPC-1-bearing mice, day 28, 12 h circadian time
  CRC: 217 ± 33 ng/mL plasma
corticosterone; B16-F1-bearing mice, day 15, 12 h circadian time
  CRC: 187 ± 36 ng/mL plasma
corticosterone; BxPC-3-bearing mice, day 35, 12 h circadian time
  CRC: 88 ± 21 ng/mL plasma
corticosterone; Caco-2-bearing mice, day 28, 12 h circadian time
  CRC: 106 ± 23 ng/mL plasma
corticosterone; HT-29-bearing mice, day 21, 12 h circadian time
  CRC: 126 ± 36 ng/mL plasma
corticosterone; HepG2-bearing mice, day 35, 12 h circadian time
  CRC: 187 ± 50 ng/mL plasma
corticosterone; LNCaP-bearing mice, day 49, 12 h circadian time
  CRC: 77 ± 15 ng/mL plasma
corticosterone; MCF-7-bearing mice, day 28, 12 h circadian time
  CRC: 75 ± 20 ng/mL plasma
corticosterone; MDA-MB-231-bearing mice, day 35, 12 h circadian time
  CRC: 84 ± 24 ng/mL plasma
corticosterone; MeWo-bearing mice, day 35, 12 h circadian time
  CRC: 87 ± 17 ng/mL plasma
corticosterone; MelJuso-bearing mice, day 35, 12 h circadian time
  CRC: 80 ± 15 ng/mL plasma
corticosterone; PC-3-bearing mice, day 21, 12 h circadian time
  CRC: 145 ± 30 ng/mL plasma
corticosterone; SK-OV-3-bearing mice, day 49, 12 h circadian time
  CRC: 64 ± 18 ng/mL plasma
corticosterone; melanoma-bearing mice, pterostilbene 30 mg/kg every 48 h (FIG. 2A)
  corticosterone in plasma: to practically control values
HT-29 human colon cancer
  decrease in tumor cell viability: ~10%
[1]
  Tumor vol.: 375 ± 106* mm^3
[2]
  Tumor vol.: 795 ± 285 mm^3
MeWo melanoma; MeWo-RFP, 35 days after inoculation, Pter 30 mg/kg i.v. every 48 h and/or CRC infusion 0.3 μg/h
  Tumor vol.: 167 ± 53* mm^3
MeWo melanoma; Mewo, day 42, 30 mg Pter/kg i.v. every 48 h, vs controls
  inhibition of tumor growth: ~65%
MeWo melanoma cells
  CAT: 1.6 ± 0.4 mU/10^6 cells
  G6PDH: 266 ± 39 mU/10^6 cells
  GCL: 35 ± 12 mU/10^6 cells
  GGT: 16.0 ± 2.4 mU/10^6 cells
  GPX: 2.8 ± 1.0 mU/10^6 cells
  GSH: 7.3 ± 1.7 nmol/10^6 cells
  GSH/GSSG: 73 ± 11
  GSR: 4.9 ± 1.2 mU/10^6 cells
  GSS: 7.4 ± 1.6 mU/10^6 cells
  GSSG: 0.1 ± 0.03 nmol/10^6 cells
  GST: 6.5 ± 1.3 mU/10^6 cells
  H2O2: 0.7 ± 0.2 nmol/10^6 cells × min
  IDH: 1.5 ± 0.4 U/10^6 cells
  ME: 32 ± 11 mU/10^6 cells
  NADPH: 0.05 ± 0.002 nmol/mg prot
  NADPH/NADP^+: 1.2 ± 0.2
  NADP^+: 0.04 ± 0.01 nmol/mg prot
  NOX: 132 ± 25 R.L.U./10^6 cells
  O2^−: 3.5 ± 0.7 ΔFL1, a.u.
  SOD1: 0.5 ± 0.2 U/10^6 cells
  SOD2: 0.1 ± 0.05 U/10^6 cells
  TXN: 0.8 ± 0.2 μg/10^6 cells
  TXNRD: 0.9 ± 0.2 U/10^6 cells
